Counter-ions that a name gives are not always drawn.
Key:
Type in all cases: biochemical
[1] = target: T1, GCK (germinal center kinase, MAP4K2) (Homo sapiens, UniProt Q12851); experiment: in vitro radiometric kinase assay at […] BAY61-3606 (Fig 3B)
T1 construct: Residues 1–473 glutathione-s-transferase (GST) tagged protein
T1 sequence (Q12851 1-473): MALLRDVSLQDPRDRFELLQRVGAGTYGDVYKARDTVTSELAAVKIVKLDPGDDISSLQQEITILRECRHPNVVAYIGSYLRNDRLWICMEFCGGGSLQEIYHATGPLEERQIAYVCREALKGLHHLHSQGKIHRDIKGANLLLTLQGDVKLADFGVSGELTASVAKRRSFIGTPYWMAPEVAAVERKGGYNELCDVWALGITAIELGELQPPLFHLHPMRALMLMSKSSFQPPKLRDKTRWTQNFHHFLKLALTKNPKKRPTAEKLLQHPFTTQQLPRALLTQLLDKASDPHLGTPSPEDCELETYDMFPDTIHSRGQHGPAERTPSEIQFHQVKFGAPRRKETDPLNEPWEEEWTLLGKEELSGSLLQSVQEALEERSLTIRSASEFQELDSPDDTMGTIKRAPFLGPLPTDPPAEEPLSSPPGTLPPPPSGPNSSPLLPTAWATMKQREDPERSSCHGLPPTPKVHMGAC

[2] = target: T2, SYK (Homo sapiens, UniProt P43405); experiment: as above
T2 construct: Full length His-tagged protein

[3] = target: T3, IKKα (Homo sapiens, UniProt O15111); experiment: in vitro radiometric kinase assay ([γ-33P-ATP], KinaseProfiler), dose response
T3 construct: gene CHUK; Full length GST-tagged protein
T3 sequence (O15111 1-745): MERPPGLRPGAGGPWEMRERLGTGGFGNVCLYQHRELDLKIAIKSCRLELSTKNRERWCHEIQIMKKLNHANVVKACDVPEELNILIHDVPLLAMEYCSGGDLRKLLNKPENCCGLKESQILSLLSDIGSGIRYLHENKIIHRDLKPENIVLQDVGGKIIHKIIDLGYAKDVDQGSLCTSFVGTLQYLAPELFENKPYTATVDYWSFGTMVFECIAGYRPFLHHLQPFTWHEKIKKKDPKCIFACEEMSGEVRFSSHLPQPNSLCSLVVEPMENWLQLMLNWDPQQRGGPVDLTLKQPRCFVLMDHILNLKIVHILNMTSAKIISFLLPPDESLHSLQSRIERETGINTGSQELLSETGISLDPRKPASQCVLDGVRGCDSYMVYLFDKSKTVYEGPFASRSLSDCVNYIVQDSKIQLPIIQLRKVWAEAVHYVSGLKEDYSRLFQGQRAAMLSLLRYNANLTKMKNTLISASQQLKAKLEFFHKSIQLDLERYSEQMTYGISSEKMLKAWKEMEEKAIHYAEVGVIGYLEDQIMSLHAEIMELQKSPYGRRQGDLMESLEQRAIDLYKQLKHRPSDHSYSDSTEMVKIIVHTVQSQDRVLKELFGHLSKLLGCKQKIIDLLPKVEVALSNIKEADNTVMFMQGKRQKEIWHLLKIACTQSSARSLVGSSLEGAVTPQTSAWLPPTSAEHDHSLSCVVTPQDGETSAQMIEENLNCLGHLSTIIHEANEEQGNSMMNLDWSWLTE

IC50 [3]: 45 nM
Compound: COc1ccc(-c2cc3nccn3c(Nc3ncccc3C(N)=O)n2)cc1OC [BAY61-3606, 2-[7-(3,4-dimethoxyphenyl)-imidazo[1,2-c]pyrimidin-5-ylamino]nicotinamide dihydrochloride]
in vitro radiometric kinase assay at 10 μM BAY61-3606 (Fig 3B) [1]: We observed that BAY61-3606 is a potent inhibitor of SYK, GCK and IKKα, but not IKKβ or LYN
in vitro radiometric kinase assay at 10 μM BAY61-3606 (Fig 3B) [2]: We observed that BAY61-3606 is a potent inhibitor of SYK, GCK and IKKα, but not IKKβ or LYN

— publication PMC4773098, “Inhibition of IKKα by BAY61-3606 Reveals IKKα-Dependent Histone H3 Phosphorylation in Human Cytomegalovirus Infected Cells” (PLoS ONE, 2016)
